Assay [1] concerns Escherichia coli K-12. The assay is described as follows: Inhibition of acrAB AcrAB-TolC-mediated Nile Red efflux in Escherichia coli K-12 3-AG100 overexpressing acrAB AcrAB-TolC assessed as time needed for 50% efflux after energization with 50 mM glucose by spectrofluorometric assay.
Assay [2] concerns Escherichia coli K-12. The assay is described as follows: Inhibition of acrAB AcrAB-TolC-mediated Nile Red efflux in Escherichia coli K-12 3-AG100 overexpressing acrAB AcrAB-TolC assessed as time needed for 50% efflux after energization with 50 mM glucose at 100 uM by spectrofluorometric assay.
Assay [3] concerns Escherichia coli K-12. Put plainly: Inhibition of acrAB AcrAB-TolC in Escherichia coli K-12 3-AG100 overexpressing acrAB AcrAB-TolC assessed as [3H]TMG accumulation at 100 uM by scintillation counter method.
The test system of assay [4] is Escherichia coli K-12. The assay is described as follows: Inhibition of acrAB AcrAB-TolC-mediated Nile Red efflux in Escherichia coli K-12 3-AG100 overexpressing acrAB AcrAB-TolC assessed as time needed for 50% efflux after energization with 50 mM glucose at 800 uM by spectrofluorometric assay.
The subject of assay [5] is Escherichia coli K-12. Put plainly: Inhibition of acrAB AcrAB-TolC-mediated Nile Red efflux in marR mutant containing Escherichia coli K-12 3-AG102 overexpressing acrAB AcrAB-TolC assessed as time needed for 50% efflux after energization with 50 mM glucose at 1000 uM by spectrofluorometric assay.
For assay [6], the system named is Escherichia coli K-12. Put plainly: Inhibition of acrAB AcrAB-TolC-mediated Nile Red efflux in marR mutant containing Escherichia coli K-12 3-AG102 overexpressing acrAB AcrAB-TolC assessed as time needed for 50% efflux after energization with 50 mM glucose at 200 uM by spectrofluorometric assay.
Assay [7] concerns Escherichia coli K-12. Put plainly: Inhibition of acrAB AcrAB-TolC in Escherichia coli K-12 3-AG100 overexpressing acrAB AcrAB-TolC assessed as [3H]TMG accumulation at 800 uM by scintillation counter method.
Assay [8] relates to Escherichia coli K-12. Put plainly: Inhibition of acrAB AcrAB-TolC in Escherichia coli K-12 3-AG100 overexpressing acrAB AcrAB-TolC assessed as [3H]TMG accumulation at 200 uM by scintillation counter method.
In assay [9] the test system is Escherichia coli K-12. The assay is described as follows: Inhibition of acrAB AcrAB-TolC-mediated Nile Red efflux in Escherichia coli K-12 3-AG100 overexpressing acrAB AcrAB-TolC assessed as time needed for 50% efflux after energization with 50 mM glucose upto 2 mM by spectrofluorometric assay.

Calls of active or inactive are those of the source. The calls are words filed in the database; no cut-off is given here. Residues, ends and D or L forms follow the SMILES beside them. *: point of attachment. βNA = c1ccc2cc(N*)ccc2c1 A value given as a limit tells only on which side of the number the result lay.

Broadly, the inhibition is how much of the control response was suppressed. Consider `N=C(N)NCCC[C@H](NC(=O)[C@@H](N)Cc1ccccc1)C(=O)Nc1ccc2ccccc2c1` (H-Phe-Arg-βNA), for which the inhibition entry in assay [1] is “Dose-dependent effect”; in assay [3], 60%. Besides, the inhibition result in [2] is “Active”.

Regarding `c1ccc2c(CN3CCNCC3)cccc2c1`, in assay [4], the inhibition result is “Active”. Further, the inhibition result in [1] is “Dose-dependent effect”; in assay [7] it was 53%. The TIME in [5] is greater than 0.0556 h; in [6] it was 0.0278 h.

`N#CC(C#N)=NNc1cccc(Cl)c1`: the inhibition in assay [8] is 4.5%.

For `C[C@H]1c2cccc(O)c2C(=O)C2=C(O)[C@]3(O)C(=O)C(C(N)=O)=C(O)[C@@H](N(C)C)[C@@H]3[C@@H](O)[C@@H]21`, the TIME in assay [5] was greater than 0.0556 h; in [6], 0.0472 h. Further, the inhibition in assay [7] turned out to be 44%.

Turning to `CN(C)c1ccc(O)c2c1C[C@H]1C[C@H]3[C@H](N(C)C)C(O)=C(C(N)=O)C(=O)[C@@]3(O)C(O)=C1C2=O`, the TIME in [5] and in [6] was greater than 0.0556 h each time. Further, the inhibition in [8] is 45%.

As for `CC[C@H]1OC(=O)[C@H](C)[C@@H](O[C@H]2C[C@@](C)(OC)[C@@H](O)[C@H](C)O2)[C@H](C)[C@@H](O[C@@H]2O[C@H](C)C[C@H](N(C)C)[C@H]2O)[C@](C)(O)C[C@@H](C)C(=O)[C@H](C)[C@@H](O)[C@]1(C)O`, the inhibition result in [9] was “inactive”.

Turning to `CN(C)[C@@H]1C(O)=C(C(N)=O)C(=O)[C@@]2(O)C(O)=C3C(=O)c4c(O)cccc4[C@@](C)(O)[C@H]3C[C@@H]12`, the TIME in assay [5] was greater than 0.0556 h; in assay [6], 0.025 h. For the same molecule, the inhibition in assay [7] came out at 27%.

As to `COc1cccc2c1C(=O)c1c(O)c3c(c(O)c1C2=O)C[C@@](O)(C(=O)CO)C[C@@H]3O[C@H]1C[C@H](N)[C@H](O)[C@H](C)O1`, the TIME in [5] and in assay [6] was greater than 0.0556 h in each case. In addition, the inhibition in [3] came out at 78%.

Take `CC(=O)NC[C@H]1CN(c2ccc(N3CCOCC3)c(F)c2)C(=O)O1`: in [9], the inhibition result was “inactive”.

As to `c1ccc([P+](c2ccccc2)(c2ccccc2)c2ccccc2)cc1`, the figures for the TIME in [5] and in assay [6] were greater than 0.0556 h and 0.0292 h, respectively. The inhibition in [7] worked out at 97%.

On to `CN(C)[C@@H]1C(O)=C(C(N)=O)C(=O)[C@@]2(O)C(O)=C3C(=O)c4c(O)ccc(Cl)c4[C@@](C)(O)[C@H]3C[C@@H]12`, for which the TIME was greater than 0.0556 h in [5] and 0.0556 h in assay [6]. Further, in assay [8], the inhibition was 14%.

Source of the values: ChEMBL document CHEMBL1671720, “Optimized Nile Red efflux assay of AcrAB-TolC multidrug efflux system shows competition between substrates” (Antimicrob Agents Chemother, 2010).
